“And” between values parts separate entries of the source, which are not always exact repeats. Equal values may be shown once. Read-outs that look alike come from different tables or passages of the source.
Experiments:
CYP2C9 = CYP2C9 (Homo sapiens, UniProt P11712); test: Reversible CYP inhibition in human liver microsomes; conditions: for activity at 0.01 µM / activity at 0.158 µM / activity at 0.398 µM / activity at 1 µM / activity at 15.8 µM / activity at 39.8 µM / activity at 100 µM: human, microsomes, pH 7.4, Percent of Control Activity
Sequence of CYP2C9 (P11712 whole entry): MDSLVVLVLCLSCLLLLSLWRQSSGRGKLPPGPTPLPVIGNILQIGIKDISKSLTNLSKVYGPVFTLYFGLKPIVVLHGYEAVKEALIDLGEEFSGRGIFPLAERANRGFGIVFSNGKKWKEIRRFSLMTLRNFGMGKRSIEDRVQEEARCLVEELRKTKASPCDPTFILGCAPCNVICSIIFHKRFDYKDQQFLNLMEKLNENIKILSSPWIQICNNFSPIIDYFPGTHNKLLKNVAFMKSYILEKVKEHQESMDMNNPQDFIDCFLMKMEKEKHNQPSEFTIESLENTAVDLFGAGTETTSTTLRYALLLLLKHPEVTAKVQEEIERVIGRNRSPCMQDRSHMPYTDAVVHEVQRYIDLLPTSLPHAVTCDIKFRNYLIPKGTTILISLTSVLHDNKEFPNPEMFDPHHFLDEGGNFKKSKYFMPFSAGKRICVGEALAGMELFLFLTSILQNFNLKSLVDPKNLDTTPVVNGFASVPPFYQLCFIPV

[1] = In vitro micronucleus formation; format: cell-based
CYP2D6 = CYP2D6 (Homo sapiens, UniProt P10635); test: Reversible CYP inhibition in human liver microsomes
Sequence of CYP2D6 (P10635 whole entry): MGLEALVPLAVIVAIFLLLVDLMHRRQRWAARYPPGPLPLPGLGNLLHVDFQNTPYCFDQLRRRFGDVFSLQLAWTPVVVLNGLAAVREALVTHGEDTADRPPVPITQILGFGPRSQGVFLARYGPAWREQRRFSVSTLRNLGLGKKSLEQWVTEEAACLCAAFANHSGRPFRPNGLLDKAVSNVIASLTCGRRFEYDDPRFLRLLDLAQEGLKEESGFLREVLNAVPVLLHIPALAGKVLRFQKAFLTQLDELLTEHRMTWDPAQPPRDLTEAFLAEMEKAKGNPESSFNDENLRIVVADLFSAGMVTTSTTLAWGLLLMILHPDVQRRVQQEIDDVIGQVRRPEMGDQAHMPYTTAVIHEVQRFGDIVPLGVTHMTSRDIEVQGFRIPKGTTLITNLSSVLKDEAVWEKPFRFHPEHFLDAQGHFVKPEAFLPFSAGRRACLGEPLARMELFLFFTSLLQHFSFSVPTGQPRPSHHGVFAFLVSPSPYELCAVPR

## COc1cccc2[nH]c(C(=O)N[C@@H](CC(C)C)C(=O)N[C@@H](C[C@@H]3CCNC3=O)C(=O)COP(=O)(O)O)cc12 [PF-07304814]
CYP2C9
  IC50: > 100 µM
CYP2C9; CYP 2C9, 0.01 µM, 30-Minute Preincubation, 0.01 µM
  Percent of Control Activity: 99.6% and 105.4%
CYP2C9; CYP 2C9, 0.01 µM, Zero-Minute Preincubation, 0.01 µM
  Percent of Control Activity: 102.7% and 88.8%
CYP2C9; CYP 2C9, 0.158 µM, 30-Minute Preincubation, 0.158 µM
  Percent of Control Activity: 97.3% and 103.8%
CYP2C9; CYP 2C9, 0.158 µM, Zero-Minute Preincubation, 0.158 µM
  Percent of Control Activity: 103.7% and 96.2%
CYP2C9; CYP 2C9, 0.398 µM, 30-Minute Preincubation, 0.398 µM
  Percent of Control Activity: 96.2%
CYP2C9; CYP 2C9, 0.398 µM, Zero-Minute Preincubation, 0.398 µM
  Percent of Control Activity: 103.2% and 91.4%
CYP2C9; CYP 2C9, 1 µM, 30-Minute Preincubation, 1 µM
  Percent of Control Activity: 98.0% and 100.0%
CYP2C9; CYP 2C9, 1 µM, Zero-Minute Preincubation, 1 µM
  Percent of Control Activity: 88.9%
CYP2C9; CYP 2C9, 15.8 µM, 30-Minute Preincubation, 15.8 µM
  Percent of Control Activity: 97.7% and 102.2%
CYP2C9; CYP 2C9, 15.8 µM, Zero-Minute Preincubation, 15.8 µM
  Percent of Control Activity: 104.1% and 92.6%
CYP2C9; CYP 2C9, 39.8 µM, 30-Minute Preincubation, 39.8 µM
  Percent of Control Activity: 98.6% and 102.8%
CYP2C9; CYP 2C9, 39.8 µM, Zero-Minute Preincubation, 39.8 µM
  Percent of Control Activity: 101.8% and 92.4%
CYP2C9; CYP 2C9, 100 µM, 30-Minute Preincubation, 100 µM
  Percent of Control Activity: 97.1% and 95.4%
CYP2C9; CYP 2C9, 100 µM, Zero-Minute Preincubation, 100 µM
  Percent of Control Activity: 91.7%
CYP2C9; Diclofenac 4′-hydroxylation, T30
  IC50: > 100 µM
CYP2C9; CYP 2C9, 0.01 µM, 30-Minute Preincubation
  activity at 0.01 µM: 100%
CYP2C9; CYP 2C9, 0.01 µM, Zero-Minute Preincubation
  activity at 0.01 µM: 98.2%
CYP2C9; CYP 2C9, 0.158 µM, 30-Minute Preincubation
  activity at 0.158 µM: 98.3%
CYP2C9; CYP 2C9, 0.158 µM, Zero-Minute Preincubation
  activity at 0.158 µM: 103%
CYP2C9; CYP 2C9, 0.398 µM, 30-Minute Preincubation
  activity at 0.398 µM: 106%
CYP2C9; CYP 2C9, 0.398 µM, Zero-Minute Preincubation
  activity at 0.398 µM: 102%
CYP2C9; CYP 2C9, 1 µM, 30-Minute Preincubation
  activity at 1 µM: 100%
CYP2C9; CYP 2C9, 1 µM, Zero-Minute Preincubation
  activity at 1 µM: 100%
CYP2C9; CYP 2C9, 15.8 µM, 30-Minute Preincubation
  activity at 15.8 µM: 98.8%
CYP2C9; CYP 2C9, 15.8 µM, Zero-Minute Preincubation
  activity at 15.8 µM: 106%
CYP2C9; CYP 2C9, 39.8 µM, 30-Minute Preincubation
  activity at 39.8 µM: 101%
CYP2C9; CYP 2C9, 39.8 µM, Zero-Minute Preincubation
  activity at 39.8 µM: 105%
CYP2C9; CYP 2C9, 100 µM, 30-Minute Preincubation
  activity at 100 µM: 96.5%
CYP2C9; CYP 2C9, 100 µM, Zero-Minute Preincubation
  activity at 100 µM: 101%
[1]
  micronuclei formation: did not induce micronuclei formation
CYP2D6
  IC50: > 100 µM
CYP2D6; CYP 2D6, 0.01 µM, 30-Minute Preincubation, 0.01 µM
  Percent of Control Activity: 97.3% and 99.6%
CYP2D6; CYP 2D6, 0.01 µM, Zero-Minute Preincubation, 0.01 µM
  Percent of Control Activity: 101.0% and 93.7%
CYP2D6; CYP 2D6, 0.158 µM, 30-Minute Preincubation, 0.158 µM
  Percent of Control Activity: 96.0%
CYP2D6; CYP 2D6, 0.158 µM, Zero-Minute Preincubation, 0.158 µM
  Percent of Control Activity: 97.1% and 95.4%
CYP2D6; CYP 2D6, 0.398 µM, 30-Minute Preincubation, 0.398 µM
  Percent of Control Activity: 95.2% and 103.0%
CYP2D6; CYP 2D6, 0.398 µM, Zero-Minute Preincubation, 0.398 µM
  Percent of Control Activity: 98.0% and 97.1%
CYP2D6; CYP 2D6, 1 µM, 30-Minute Preincubation, 1 µM
  Percent of Control Activity: 95.2% and 99.6%
CYP2D6; CYP 2D6, 1 µM, Zero-Minute Preincubation, 1 µM
  Percent of Control Activity: 94.2%
CYP2D6; CYP 2D6, 15.8 µM, 30-Minute Preincubation, 15.8 µM
  Percent of Control Activity: 101.2% and 99.3%
CYP2D6; CYP 2D6, 15.8 µM, Zero-Minute Preincubation, 15.8 µM
  Percent of Control Activity: 97.0%
CYP2D6; CYP 2D6, 39.8 µM, 30-Minute Preincubation, 39.8 µM
  Percent of Control Activity: 99.9% and 102.0%
CYP2D6; CYP 2D6, 39.8 µM, Zero-Minute Preincubation, 39.8 µM
  Percent of Control Activity: 95.5% and 101.2%
CYP2D6; CYP 2D6, 100 µM, 30-Minute Preincubation, 100 µM
  Percent of Control Activity: 93.7% and 95.4%
CYP2D6; CYP 2D6, 100 µM, Zero-Minute Preincubation, 100 µM
  Percent of Control Activity: 68.1% and 92.0% and 98.1%
CYP2D6; Dextromethorphan O-demethylation, T0
  IC50: > 100 µM
